Activity calls are given as the source filed them. No cut-off for these calls is given here.

Results on eight compounds are retold here after ChEMBL document CHEMBL3632553, “New fluorinated agonists for targeting the sphingosin-1-phosphate receptor 1 (S1P(1))” (2015).

Experiment [1] concerns the target Sphingosine 1-phosphate receptor 1 (Homo sapiens) (UniProt P21453). Briefly: Agonist activity at human sphingosin-1-phosphate receptor 1 expressed in CHO cells assessed as phosphorylation status of p44/42 MAPK after 5 mins by Western blotting. The experiment is classed as cell-based.
The target is the same in experiment [2]. Put plainly: Agonist activity at human sphingosin-1-phosphate receptor 1 expressed in CHO cells assessed as phosphorylation status of p44/42 MAPK after 10 mins by Western blotting. The experiment is classed as cell-based.
The target is the same in experiment [3]. Put plainly: Agonist activity at human sphingosin-1-phosphate receptor 1 expressed in CHO cells assessed as phosphorylation status of p44/42 MAPK after 2.5 mins by Western blotting. In kind it is cell-based.
Experiment [4] relates to Mus musculus. Briefly: Immunosuppressive activity in mouse assessed as reduction of CD8+ level in peripheral blood assessed per 10^6 cells at 1.25 mg/kg, ip after 24 hrs by flow cytometry (reference value: 0.48 +/- 0.05 ml). The experiment is classed as functional.
Experiment [5] concerns Mus musculus. Put plainly: Immunosuppressive activity in mouse assessed as induction of lymphopenia at 1.25 mg/kg, ip after 24 hrs by flow cytometry. The experiment is classed as functional.
Experiment [6] relates to Mus musculus. Put plainly: Immunosuppressive activity in mouse assessed as reduction of B-cells level in peripheral blood assessed per 10^6 cells at 1.25 mg/kg, ip after 24 hrs by flow cytometry (reference value: 4.72 +/- 0.53 ml). The experiment is classed as functional.
In experiment [7] the test system is Mus musculus. Put plainly: Immunosuppressive activity in mouse assessed as reduction of WBC level in peripheral blood assessed per 10^6 cells at 1.25 mg/kg, ip after 24 hrs by flow cytometry (reference value: 8.94 +/- 0.59 ml). The experiment is classed as functional.
The test system of experiment [8] is Mus musculus. Put plainly: Immunosuppressive activity in mouse assessed as reduction of CD4+ level in peripheral blood assessed per 10^6 cells at 1.25 mg/kg, ip after 24 hrs by flow cytometry (reference value: 0.73 +/- 0.07 ml). The experiment is classed as functional.

Chain of Sphingosine 1-phosphate receptor 1 (Homo sapiens) (P21453 whole entry): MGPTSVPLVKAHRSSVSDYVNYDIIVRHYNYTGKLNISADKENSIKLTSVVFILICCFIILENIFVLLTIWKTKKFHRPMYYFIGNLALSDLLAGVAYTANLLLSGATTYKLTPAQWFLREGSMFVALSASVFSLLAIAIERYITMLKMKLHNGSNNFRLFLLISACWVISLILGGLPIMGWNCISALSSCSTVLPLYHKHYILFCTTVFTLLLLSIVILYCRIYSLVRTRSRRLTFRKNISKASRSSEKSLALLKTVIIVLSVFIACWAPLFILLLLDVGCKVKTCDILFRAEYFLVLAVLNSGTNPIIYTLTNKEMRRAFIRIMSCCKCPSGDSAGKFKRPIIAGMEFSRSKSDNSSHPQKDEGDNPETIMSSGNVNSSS

With `NC(CO)(CO)CCCCCCCCCCc1ccccc1`, the outcome in experiment [1], in experiment [2] and in experiment [3] was Active.

`NC(CO)(CO)CCCCCCCCCCc1cccc(S(F)(F)(F)(F)F)c1`: the outcome in experiment [1], in experiment [2] and in experiment [3] was Active.

As for `NC(CO)(CO)CCCCCCCCCCc1c(F)c(F)c(F)c(F)c1F`, the result in experiment [1], in experiment [2] and in experiment [3] was Active.

Consider `NC(CO)(CO)CCCCCCCCCCc1ccc(C(F)(F)F)cc1`, for which the outcome in experiment [1], in experiment [2] and in experiment [3] was Active.

As for `NC(CO)(CO)CCCCCCCCCCc1ccc(S(F)(F)(F)(F)F)cc1`, the result in experiment [1], in experiment [2] and in experiment [3] was Active.

As for `NC(CO)(CO)CCCCCCCCCCc1ccc(F)cc1`, the outcome in experiment [1], in experiment [2] and in experiment [3] was Active.

Take `CCCCCCCCc1ccc(CCC(N)(CO)CO)cc1` [FINGOLIMOD]: the cell count in the experiment on Mus musculus [4] is 0.04 10^6 cells/mL; with Mus musculus [6], 0.61 10^6 cells/mL; in the experiment on Mus musculus [7], 3.69 10^6 cells/mL; in the experiment on Mus musculus [8], 0.02 10^6 cells/mL. The Activity in the experiment with Mus musculus [5] was 97%.

Regarding `NC(CO)(CO)CCCCCCCCCCCCCCC(F)F`, the cell count with Mus musculus [4] was 0.04 10^6 cells/mL; in the experiment with Mus musculus [6] it was 0.29 10^6 cells/mL; in the experiment on Mus musculus [7], 1.67 10^6 cells/mL; in the experiment with Mus musculus [8] it was 0.03 10^6 cells/mL. The Activity with Mus musculus [5] was 95%. The outcome in experiment [1], in experiment [2] and in experiment [3] was Active.
